{"source": "paper PMC8693655", "about": "“Functional Characterization of BrF3'H, Which Determines the Typical Flavonoid Profile of Purple Chinese Cabbage” (Frontiers in Plant Science, 2021)", "target": "T1, BrF3′H (BrF3′H-8267) (Brassica rapa, UniProt M4CYL5)", "T1 construct": "full-length ORF, 511 residues, C-terminal V5 and 6xHis tags (pYES-DEST52); yeast WAT11 microsomes with Arabidopsis reductase ATR1 as redox partner", "T1 sequence (M4CYL5 entry or part of it)": "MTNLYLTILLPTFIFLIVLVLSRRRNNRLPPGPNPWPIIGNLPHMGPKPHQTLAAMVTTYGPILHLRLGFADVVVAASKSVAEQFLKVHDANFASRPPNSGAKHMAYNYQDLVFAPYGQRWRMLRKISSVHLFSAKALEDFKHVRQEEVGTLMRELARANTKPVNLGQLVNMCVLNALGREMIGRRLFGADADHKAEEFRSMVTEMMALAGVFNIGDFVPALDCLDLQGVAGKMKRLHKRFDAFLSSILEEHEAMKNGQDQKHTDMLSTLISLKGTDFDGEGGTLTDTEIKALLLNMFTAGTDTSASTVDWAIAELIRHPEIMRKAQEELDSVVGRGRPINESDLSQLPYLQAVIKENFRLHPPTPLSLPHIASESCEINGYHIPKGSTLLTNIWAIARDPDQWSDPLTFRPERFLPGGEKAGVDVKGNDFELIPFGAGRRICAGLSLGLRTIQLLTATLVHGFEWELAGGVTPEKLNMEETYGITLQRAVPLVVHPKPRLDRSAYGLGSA", "test": "HPLC of […]'-hydroxylation by yeast microsomes", "assay_type": "biochemical", "conditions": "1 mM NADPH, 100 mM Tris-Cl pH 7.5, 30°C, 20 min, 10 μg microsomal protein, Arabidopsis ATR1 reductase", "note": "Where two headings read alike, the source gives them in different places.", "data": [{"smiles": "O=C1c2c(O)cc(O)cc2OC(c2ccc(O)cc2)C1O", "note": "(racemic) [DHK, dihydrokaempferol]", "values": [{"measurement": "Km", "setting": "read-out: Substrates / DHK", "value": 3600, "unit": "µM"}]}, {"smiles": "O=C1CC(c2ccc(O)cc2)Oc2cc(O)cc(O)c21", "note": "(racemic) [Nar, naringenin]", "values": [{"measurement": "Km", "setting": "read-out: Substrates / Nar", "value": "1720 ± 152", "unit": "µM"}]}, {"smiles": "O=c1c(O)c(-c2ccc(O)cc2)oc2cc(O)cc(O)c12", "note": "[K, kaempferol]", "values": [{"measurement": "Km", "setting": "read-out: Substrates / K", "value": "942 ± 65", "unit": "µM"}]}]}
